{"source": "paper PMC9127750", "about": "“Structure-based design of CDC42 effector interaction inhibitors for the treatment of cancer” (Cell reports, 2022)", "test_system": "WM3248 melanoma cells, 486 antibodies", "assay": "Reverse phase protein arrays (RPPA)", "assay_type": "cell-based, Human", "text": "Pellets were snap frozen in liquid nitrogen and shipped to MD Anderson Cancer Center core RPPA facility for RPPA analysis (Table S5). Three biological replicates for each sample were generated.\nNomenclatures on the RPPA heatmaps: name_of_antibody.species_of_antibody.status_of_antibody. V - antibody validated; C - validation of antibody in progress; Q - antibody nonspecific; E – under evaluation; antibodies raised in M - mouse, G - goat, R - rabbit, or T - rat.", "note": "Values joined by “and” are separate entries in the source; they are usually repeats but may differ in a detail not shown here. Equal values may be shown once."}
{"smiles": "CN(C)c1cccc(Nc2cc(-c3ccccc3)nc(C3CCNCC3)n2)c1", "note": "[ARN22089, N1,N1-dimethyl-N3-(6-phenyl-2-(piperidin-4-yl)pyrimidin-4-yl)benzene-1,3-diamine]", "values": [{"measurement": "Merlin.R.C Norm_20 Average", "setting": "level 20 vs 0", "result": 1.326}, {"measurement": "Midkine.R.V Norm_20 Average", "setting": "level 20 vs 0", "result": 0.903}, {"measurement": "Mitofusin.1.R.V Norm_20 Average", "setting": "level 20 vs 0", "result": 0.924}, {"measurement": "Mitofusin.2.R.V Norm_20 Average", "setting": "level 20 vs 0", "result": 0.929}, {"measurement": "Mnk1.R.V Norm_20 Average", "setting": "level 20 vs 0", "result": 0.909}, {"measurement": "mTOR.R.V Norm_20 Average", "setting": "level 20 vs 0", "result": 0.966}, {"measurement": "mTOR_pS2448.R.C Norm_20 Average", "setting": "level 20 vs 0", "result": 0.981}, {"measurement": "HLA.DQA1.R.V Norm_20", "setting": "level 20 vs 0, replicates", "result": 0.920}, {"measurement": "HLA.DR.DP.DQ.DX.R.C Norm_20", "setting": "level 20 vs 0, replicates", "result": "1.294 and 1.162"}, {"measurement": "HMHA1.R.V Norm_20", "setting": "level 20 vs 0, replicates", "result": "0.981 and 0.880 and 1.188"}, {"measurement": "HNRNPK.R.V Norm_20", "setting": "level 20 vs 0, replicates", "result": "0.984 and 1.119 and 0.871"}, {"measurement": "HSP27.M.C Norm_20", "setting": "level 20 vs 0, replicates", "result": "0.670 and 0.856 and 0.906"}, {"measurement": "HSP27_pS82.R.V Norm_20", "setting": "level 20 vs 0, replicates", "result": "0.842 and 0.885 and 1.155"}, {"measurement": "HSP60.R.V Norm_20", "setting": "level 20 vs 0, replicates", "result": "1.130 and 0.832 and 1.026"}, {"measurement": "HSP70.R.C Norm_20", "setting": "level 20 vs 0, replicates", "result": "1.062 and 1.459"}, {"measurement": "Hexokinase.I.R.C Norm_20", "setting": "level 20 vs 0, replicates", "result": "1.110 and 1.189 and 1.305"}, {"measurement": "Hexokinase.II.R.V Norm_20", "setting": "level 20 vs 0, replicates", "result": "1.291 and 0.878 and 1.104"}, {"measurement": "Hif.1αR.C Norm_20", "setting": "level 20 vs 0, replicates", "result": "1.195 and 0.879 and 1.078"}, {"measurement": "Histone.H3.R.V Norm_20", "setting": "level 20 vs 0, replicates", "result": "1.827 and 15.369 and 0.615"}, {"measurement": "Histone.H3_pS10.R.V Norm_20", "setting": "level 20 vs 0, replicates", "result": "1.077 and 5.500 and 0.823"}, {"measurement": "IDO.R.C Norm_20", "setting": "level 20 vs 0, replicates", "result": "0.970 and 0.836"}, {"measurement": "IGF1R_pY1135_Y1136.R.V Norm_20", "setting": "level 20 vs 0, replicates", "result": "1.013 and 0.925"}, {"measurement": "IGFBP2.R.V Norm_20", "setting": "level 20 vs 0, replicates", "result": "1.100 and 0.958 and 1.153"}, {"measurement": "IGFBP3.M.V Norm_20", "setting": "level 20 vs 0, replicates", "result": "0.795 and 0.982"}, {"measurement": "IGFRb.R.C Norm_20", "setting": "level 20 vs 0, replicates", "result": "1.223 and 1.234"}, {"measurement": "IL.6.R.C Norm_20", "setting": "level 20 vs 0, replicates", "result": "0.955 (2×) and 1.003"}, {"measurement": "IMP3.R.C Norm_20", "setting": "level 20 vs 0, replicates", "result": "0.919 and 1.030 and 0.952"}, {"measurement": "INPP4b.R.C Norm_20", "setting": "level 20 vs 0, replicates", "result": "0.903 and 0.986"}, {"measurement": "IR.b.R.C Norm_20", "setting": "level 20 vs 0, replicates", "result": "1.018 and 0.967 and 1.220"}, {"measurement": "IRF.1.R.V Norm_20", "setting": "level 20 vs 0, replicates", "result": "0.991 and 0.831 and 1.052"}, {"measurement": "IRF.3.R.V Norm_20", "setting": "level 20 vs 0, replicates", "result": "0.860 and 0.878 and 0.910"}, {"measurement": "IRS1.R.V Norm_20", "setting": "level 20 vs 0, replicates", "result": "1.064 and 1.027 and 1.060"}, {"measurement": "IRS2.R.C Norm_20", "setting": "level 20 vs 0, replicates", "result": "1.529 and 1.065"}, {"measurement": "JAB1.M.C Norm_20", "setting": "level 20 vs 0, replicates", "result": "0.904 and 0.945 and 1.061"}, {"measurement": "JNK2.R.V Norm_20", "setting": "level 20 vs 0, replicates", "result": "0.750 and 1.506"}, {"measurement": "JNK_pT183_Y185.R.C Norm_20", "setting": "level 20 vs 0, replicates", "result": "1.059 and 0.941 and 1.008"}, {"measurement": "Jagged1.R.V Norm_20", "setting": "level 20 vs 0, replicates", "result": "1.035 and 0.964 and 1.085"}, {"measurement": "Jak2.R.V Norm_20", "setting": "level 20 vs 0, replicates", "result": "1.132 and 0.972 and 1.009"}, {"measurement": "KAP1.R.V Norm_20", "setting": "level 20 vs 0, replicates", "result": "1.259 and 0.970 and 1.549"}, {"measurement": "KEAP1.R.V Norm_20", "setting": "level 20 vs 0, replicates", "result": "1.169 and 0.932 and 0.897"}, {"measurement": "LAD1.R.V Norm_20", "setting": "level 20 vs 0, replicates", "result": "0.881 and 0.761 and 1.249"}, {"measurement": "LC3A.B.R.C Norm_20", "setting": "level 20 vs 0, replicates", "result": "1.429 and 1.134 and 1.161"}, {"measurement": "LCN2.R.V Norm_20", "setting": "level 20 vs 0, replicates", "result": "2.531 and 1.008 and 1.326"}, {"measurement": "LDHA.R.C Norm_20", "setting": "level 20 vs 0, replicates", "result": "0.857 and 1.499 and 2.319"}, {"measurement": "LRP6_pS1490.R.V Norm_20", "setting": "level 20 vs 0, replicates", "result": 1.001}, {"measurement": "Lasu1.R.V Norm_20", "setting": "level 20 vs 0, replicates", "result": "1.199 and 1.294"}, {"measurement": "Lck.R.V Norm_20", "setting": "level 20 vs 0, replicates", "result": "1.370 and 1.163 and 1.379"}, {"measurement": "Lyn.R.V Norm_20", "setting": "level 20 vs 0, replicates", "result": "0.892 and 1.140 and 1.052"}, {"measurement": "MACC1.R.V Norm_20", "setting": "level 20 vs 0, replicates", "result": "0.920 and 0.933"}, {"measurement": "MAPK_pT202_Y204.R.C Norm_20", "setting": "level 20 vs 0, replicates", "result": "0.833 and 0.402 and 0.466"}, {"measurement": "MCT4.R.V Norm_20", "setting": "level 20 vs 0, replicates", "result": "1.030 and 0.799 and 1.149"}, {"measurement": "MDM2_pS166.R.V Norm_20", "setting": "level 20 vs 0, replicates", "result": "1.426 and 1.478 and 1.290"}, {"measurement": "MEK1.R.V Norm_20", "setting": "level 20 vs 0, replicates", "result": "1.117 and 2.580"}, {"measurement": "MEK1_pS217_S221.R.V Norm_20", "setting": "level 20 vs 0, replicates", "result": "0.743 and 0.841 and 1.347"}, {"measurement": "MEK2.R.V Norm_20", "setting": "level 20 vs 0, replicates", "result": "0.956 and 1.186"}, {"measurement": "MERIT40.R.C Norm_20", "setting": "level 20 vs 0, replicates", "result": "0.841 and 0.749 and 1.150"}, {"measurement": "MERIT40_pS29.R.V Norm_20", "setting": "level 20 vs 0, replicates", "result": "0.968 and 0.879 and 1.231"}, {"measurement": "METTL3.R.V Norm_20", "setting": "level 20 vs 0, replicates", "result": "1.164 and 1.324 and 1.250"}, {"measurement": "MIF.R.C Norm_20", "setting": "level 20 vs 0, replicates", "result": "0.869 and 0.900 and 0.906"}, {"measurement": "MIG6.R.V Norm_20", "setting": "level 20 vs 0, replicates", "result": "0.893 and 0.926 and 0.901"}, {"measurement": "MITF.R.V Norm_20", "setting": "level 20 vs 0, replicates", "result": "1.001 and 1.191 and 1.081"}, {"measurement": "MLH1.M.V Norm_20", "setting": "level 20 vs 0, replicates", "result": "0.708 and 0.840 and 1.119"}, {"measurement": "MLKL.R.V Norm_20", "setting": "level 20 vs 0, replicates", "result": "0.758 and 0.733"}, {"measurement": "MMP2.R.V Norm_20", "setting": "level 20 vs 0, replicates", "result": "0.895 and 0.974 and 0.934"}, {"measurement": "MMP14.R.V Norm_20", "setting": "level 20 vs 0, replicates", "result": "1.924 and 1.667 and 1.374"}, {"measurement": "MR1.M.C Norm_20", "setting": "level 20 vs 0, replicates", "result": "0.871 and 1.118 and 0.973"}, {"measurement": "MRAP.R.C Norm_20", "setting": "level 20 vs 0, replicates", "result": "1.035 and 1.214 and 1.082"}, {"measurement": "MSH2.R.C Norm_20", "setting": "level 20 vs 0, replicates", "result": "0.839 and 0.919 and 1.059"}, {"measurement": "MSH6.R.C Norm_20", "setting": "level 20 vs 0, replicates", "result": "1.343 and 1.387 and 1.258"}, {"measurement": "MSI2.R.C Norm_20", "setting": "level 20 vs 0, replicates", "result": "1.362 and 1.019"}, {"measurement": "MTCO1.M.V Norm_20", "setting": "level 20 vs 0, replicates", "result": "1.305 and 0.956 and 1.145"}, {"measurement": "MTSS1.M.C Norm_20", "setting": "level 20 vs 0, replicates", "result": "0.841 and 1.006 and 0.964"}, {"measurement": "Mcl.1.R.V Norm_20", "setting": "level 20 vs 0, replicates", "result": "0.748 and 0.609 and 0.905"}, {"measurement": "MelanA.R.C Norm_20", "setting": "level 20 vs 0, replicates", "result": "1.030 and 0.993 and 1.051"}, {"measurement": "Melanoma.gp100.R.C Norm_20", "setting": "level 20 vs 0, replicates", "result": "1.080 and 0.890"}, {"measurement": "Merlin.R.C Norm_20", "setting": "level 20 vs 0, replicates", "result": "1.344 and 1.329 and 1.306"}, {"measurement": "Midkine.R.V Norm_20", "setting": "level 20 vs 0, replicates", "result": "0.858 and 0.901"}, {"measurement": "Mitofusin.1.R.V Norm_20", "setting": "level 20 vs 0, replicates", "result": "0.931 and 0.783 and 1.058"}, {"measurement": "Mitofusin.2.R.V Norm_20", "setting": "level 20 vs 0, replicates", "result": "0.808 and 0.772 and 1.206"}, {"measurement": "Mnk1.R.V Norm_20", "setting": "level 20 vs 0, replicates", "result": "0.936 and 0.820 and 0.972"}, {"measurement": "mTOR.R.V Norm_20", "setting": "level 20 vs 0, replicates", "result": "0.878 and 0.940 and 1.079"}, {"measurement": "mTOR_pS2448.R.C Norm_20", "setting": "level 20 vs 0, replicates", "result": "0.856 and 0.896 and 1.190"}]}
